# Publication PMC9431032, “Boosting Cosmeceutical Peptides: Coupling Imidazolium-Based Ionic Liquids to Pentapeptide-4 Originates New Leads with Antimicrobial and Collagenesis-Inducing Activities” (Microbiology Spectrum, 2022)
# Several values for one entry are separate records, joined by “and”; a condition that tells them apart may be missing. Equal values may be shown once. Read-outs that look alike come from different tables or passages of the source. Peptide text beside a SMILES is read from it. * marks the point of attachment. X2 = Cn1cc[n+](Cc2cn(CC(=O)*)nn2)c1; Palmitoyl = CCCCCCCCCCCCCCCC(=O)*
# Tests used:
# [1] = test system: C. parapsilosis ATCC 22019; experiment: microbe, parasite or virus in culture; details: Lodderomyces parapsilosis, ATCC22019
# Protocol: (§1) The MIC values were determined according to the European Committee on Antimicrobial Susceptibility Testing (EUCAST) protocol ([36]) and are shown on Table 4.
# (§2) (iii) Antifungal activity.
# C. albicans ATCC 90028 = experiment: microbe, parasite or virus in culture; details: Candida albicans, ATCC90028
# Protocol: as §1, §2
# C. glabrata ATCC 90030 = experiment: microbe, parasite or virus in culture; details: Nakaseomyces glabratus, ATCC90030
# Protocol: as §1, §2
# E. coli ATCC 25922 = experiment: microbe, parasite or virus in culture
# Protocol: (§3) The antimicrobial activity of the IL-KTTKS conjugates was assessed in vitro against reference bacterial strains (American Type Culture Collection, ATCC). The minimal inhibitory concentration (MIC) was determined according to the Clinical and Laboratory Standards Institute (CLSI) guidelines ([28]) against Gram-positive (S. aureus, Enterococcus faecalis) and Gram-negative (Escherichia coli, Pseudomonas aeruginosa) bacteria.
# (§4) (i) Antibacterial activity in standard conditions. The test conjugates and reference compounds were evaluated for their activity against three reference strains of Gram-negative bacteria, namely, E. coli (ATCC 25922), Pseudomonas aeruginosa (ATCC 27853), and Klebsiella pneumoniae (ATCC 13883), and the four following reference strains of Gram-positive bacteria, Staphylococcus aureus (ATCC 29213), S. Epidermidis (ATCC 14990), E. faecalis (ATCC 29212), and Streptococcus pyogenes (ATCC 19615). […] MBC values were also determined as previously reported ([52]).
# S. aureus ATCC 29213 = experiment: microbe, parasite or virus in culture
# Protocol: as §3, §4
# P. aeruginosa ATCC 27853 = experiment: microbe, parasite or virus in culture
# Protocol: as §3, §4
# E. faecalis ATCC 29212 = experiment: microbe, parasite or virus in culture
# Protocol: as §3, §4
# K. pneumonia ATCC 138830 = experiment: microbe, parasite or virus in culture; details: Klebsiella pneumoniae, ATCC138830
# Protocol: as §3, §4
# [2] = test system: HaCaT cells (human immortalized keratinocytes); experiment: cells; type: cell-based
# Protocol: (§5) The cytotoxicity of KTTK(C16Im)S and C16Im-KTTKS conjugates was assessed on human foreskin fibroblasts (HFF-1) and human immortalized keratinocytes (HaCaT). […] In turn, the parent IL [C16 M1Im][Br] and its […] equimolar mixture with PP4, KTTKS:[C16 M1Im][Br]
# (§6) (iv) Toxicity to human cells. HaCat and HFF-1 were seeded at 4 × 10^4cell/mL in 96-well plate using in Dulbecco’s Modified Eagle Medium (DMEM; CLS) supplemented with 2% FBS (Biowest) and 1% of antibiotic/antimycotic solution (100 units/mL of penicillin, 10 mg/mL of streptomycin, and 0.25 mg/mL of amphotericin B, Sigma-Aldrich). The plate was incubated at 37°C in a 5% CO2 atmosphere, and the cells allowed to grow until confluence was reached. Then, solutions of the test compounds in DMEM supplemented with 2% FBS, in a concentration range between 6.3 and 100 μM, were added to the wells. After 24 h of incubation at 37°C in a 5% CO2 atmosphere, the cell viability was assessed through the resazurin reduction assay. Briefly, the medium was removed and then 20 μL of the alamarBlue Cell Viability Reagent (Resazurin sodium salt, Sigma-Aldrich) at 0.15 mg/mL in 100 μL of Hank’s Balanced Salt Solution (HBSS; Sigma-Aldrich) were added to each well; the plate was next incubated for 2 h at 37°C in a 5% CO2 atmosphere, after which fluorescence was read at 560/590 nm on a Flex Station 3 multi-mode microplate reader (Molecular Devices) ([53]). The IC50 values were thus determined using the GraphPad Prism 9.0 software, by applying the equation log(inhibitor) versus response with variable slope (four parameters).
# [3] = test system: HFF-1 cells (human foreskin fibroblasts); type: cell-based; details: 24 h
# Protocol: as §5, §6
# [4] = type: physicochemical
# Protocol: as §3
# (vi) Quantitation of final peptides and their IL conjugates. Peptide stock solutions were prepared at approximately 10 mg/mL in distilled water except for C16-KTTKS-OH that was solubilized in DMSO. Accurate quantitation of the peptide solutions were quantitated by microvolume spectrophotometry at 205 nm, using a Thermo Scientific NanoDrop One system and quantitation method 31 that assumes an extinction coefficient ε205 of 31 mL·mg^−1·cm^−1 ([50]). […] To this end, the peptide was hydrolyzed using 6 M aqueous hydrochloric acid containing phenol (10% vol/vol), for 24 h at 110°C. The hydrolysate was next evaporated to dryness and the residue dissolved in HPLC-grade water (500 μL) containing α-aminobutyric acid as internal standard. The mixture thus obtained was then derivatized by the AccQ-Tag protocol from Waters using 6-aminoquinoyl-N-hydroxysuccinimidyl carbamate ([51]), and the resulting solution analyzed by HPLC (WATERS 600) with the UV-detector (WATERS 2487) set at 254 nm.
# [5] = E. coli ATCC 25922, broth microdilution in cation-adjusted MHB2, CLSI, n = 3
# [6] = S. aureus ATCC 29213, broth microdilution in cation-adjusted MHB2, CLSI, n = 3
# [7] = P. aeruginosa ATCC 27853, broth microdilution in cation-adjusted MHB2, CLSI, n = 3
# [8] = E. faecalis ATCC 29212, broth microdilution in cation-adjusted MHB2, CLSI, n = 3
# [9] = Staphylococcus aureus, ATCC29213
# [10] = Enterococcus faecalis, ATCC29212
compound,measurement,setting,value
"OC(Cn1cncn1)(Cn1cncn1)c1ccc(F)cc1F [Fluconazole, reference compound]",MIC,[1],6.5 µM
same,MIC,C. albicans ATCC 90028,1.6 µM
same,MIC,C. glabrata ATCC 90030,26 µM
C[C@@H](O)[C@H](NC(=O)[C@@H](NC(=O)[C@@H](N)CCCCN)[C@@H](C)O)C(=O)N[C@@H](CCCCn1cc(C[n+]2ccn(C)c2)nn1)C(=O)N[C@@H](CO)C(N)=O [KTTK(MeIm)S],MIC,E. coli ATCC 25922; [5],> 954.2 μM and > 677.3 μg/mL
same,MIC,S. aureus ATCC 29213; [6],> 954.2 μM and > 677.3 μg/mL
same,MIC,P. aeruginosa ATCC 27853; [7],> 954.2 μM and > 677.3 μg/mL
same,MIC,E. faecalis ATCC 29212; [8],> 954.2 μM and > 677.3 μg/mL
C[C@@H](O)[C@H](NC(=O)[C@@H](NC(=O)[C@@H](N)CCCCn1cc(C[n+]2ccn(C)c2)nn1)[C@@H](C)O)C(=O)N[C@@H](CCCCn1cc(C[n+]2ccn(C)c2)nn1)C(=O)N[C@@H](CO)C(N)=O [K(MeIm)TTK(MeIm)S],MIC,E. coli ATCC 25922; [5],> 1245.5 μM and > 1067.4 μg/mL
same,MIC,S. aureus ATCC 29213; [6],> 1245.5 μM and > 1067.4 μg/mL
same,MIC,P. aeruginosa ATCC 27853; [7],> 1245.5 μM and > 1067.4 μg/mL
same,MIC,E. faecalis ATCC 29212; [8],> 1245.5 μM and > 1067.4 μg/mL
"CCCCCCCCCCCCCCCCn1cc[n+](C)c1 [[C16 M1Im][Br], 1-hexadecyl-3-methylimidazolium bromide, reference compound]",MIC,[1],0.93 µM
same,MIC,C. albicans ATCC 90028,0.93 µM
same,MIC,C. glabrata ATCC 90030,0.93 µM
same,MIC,K. pneumonia ATCC 138830,60 µM
same,MIC,"E. coli ATCC 25922; Escherichia coli, ATCC25922",60 µM
same,MBC,S. aureus ATCC 29213; [9],30 µM
same,MIC,S. aureus ATCC 29213; [9],0.94 µM
same,MIC,"P. aeruginosa ATCC 27853; Pseudomonas aeruginosa, ATCC27853",> 240 µM
same,MBC,E. faecalis ATCC 29212; [10],15 µM
same,MIC,E. faecalis ATCC 29212; [10],0.94 µM
same,IC50,"[2]; Homo sapiens, HaCaT, 24 h incubation, 6.3-100 μM, resazurin, mean ± SEM of 2 independent experiments (n = 8), read-out: IC50 ± SEM",6.27 ± 1.02 µM
CCCCCCCCCCCCCCCC(=O)N[C@@H](CCCCN)C(=O)N[C@H](C(=O)N[C@H](C(=O)N[C@@H](CCCCN)C(=O)N[C@@H](CO)C(=O)O)[C@@H](C)O)[C@@H](C)O [Peptide C16-KTTKS-OH] (Palmitoyl-KTTKS-OH),IC50,[3],79.7 ± 2.82 µM
same,Behaviour when diluted in cation-adjusted Mueller-Hinton broth (MHB2),[4],precipitated
same,Solubility in water,[4],poor solubility in water
same,Solvent in which the peptide was soluble,[4],dimethyl sulfoxide (DMSO)
same,IC50,[2]; 24 h,> 100 µM
C[C@@H](O)[C@H](NC(=O)[C@@H](NC(=O)[C@@H](N)CCCCn1cc(C[n+]2ccn(C)c2)nn1)[C@@H](C)O)C(=O)N[C@@H](CCCCN)C(=O)N[C@@H](CO)C(N)=O [K(MeIm)TTKS],MIC,E. coli ATCC 25922; [5],> 1030.1 μM and > 731.2 μg/mL
same,MIC,S. aureus ATCC 29213; [6],> 1030.1 μM and > 731.2 μg/mL
same,MIC,P. aeruginosa ATCC 27853; [7],> 1030.1 μM and > 731.2 μg/mL
same,MIC,E. faecalis ATCC 29212; [8],> 1030.1 μM and > 731.2 μg/mL
C16-KTTKS-NH2 [C-terminal carboxamide analogue of Matrixyl],Behaviour when diluted in cation-adjusted Mueller-Hinton broth (MHB2),[4],precipitated
same,Solvent in which the peptide was soluble,[4],water
CCCCCCCCCCCCCCn1cc[n+](Cc2cn(CCCC[C@H](NC(=O)[C@@H](NC(=O)[C@@H](NC(=O)[C@@H](N)CCCCN)[C@@H](C)O)[C@@H](C)O)C(=O)N[C@@H](CO)C(N)=O)nn2)c1 [KTTK(C14Im)S],MIC,E. coli ATCC 25922; [5],29.5 μM and 26.3 μg/mL
same,MIC,S. aureus ATCC 29213; [6],29.5 μM and 26.3 μg/mL
same,MIC,P. aeruginosa ATCC 27853; [7],58.9 μM and 52.6 μg/mL
same,MIC,E. faecalis ATCC 29212; [8],58.9 μM and 52.6 μg/mL
C[C@@H](O)[C@H](NC(=O)[C@H](CCCCN)NC(=O)Cn1cc(C[n+]2ccn(C)c2)nn1)C(=O)N[C@H](C(=O)N[C@@H](CCCCN)C(=O)N[C@@H](CO)C(N)=O)[C@@H](C)O [MeIm-KTTKS] (X2-KTTKS-NH2),MIC,E. coli ATCC 25922; [5],> 825.9 μM and > 633.4 μg/mL
same,MIC,S. aureus ATCC 29213; [6],> 825.9 μM and > 633.4 μg/mL
same,MIC,P. aeruginosa ATCC 27853; [7],> 825.9 μM and > 633.4 μg/mL
same,MIC,E. faecalis ATCC 29212; [8],> 825.9 μM and > 633.4 μg/mL
